Measured values from PubChem BioAssay AID1259407 (Chemical Carcinogenesis Research Information System (CCRIS), 2018).
Activity calls are given as the source filed them. How the calls were made is not given here.

Tested on: CCRIS mutagenicity, Ames/micronucleus/aberration tests
Experiment: CCRIS mutagenicity studies
[1] = Test System: AMES SALMONELLA TYPHIMURIUM, Strain/Indicator: TA98, Metabolic Activation: NONE, Method: STANDARD PLATE
[2] = Test System: AMES SALMONELLA TYPHIMURIUM, Strain/Indicator: TA98, Metabolic Activation: RAT, LIVER, S-9, AROCLOR 1254, Method: STANDARD PLATE
[3] = Test System: AMES SALMONELLA TYPHIMURIUM, Strain/Indicator: TA100, Metabolic Activation: NONE, Method: STANDARD PLATE
[4] = Test System: AMES SALMONELLA TYPHIMURIUM, Strain/Indicator: TA100, Metabolic Activation: RAT, LIVER, S-9, AROCLOR 1254, Method: STANDARD PLATE

CCc1cn([C@H]2C[C@H](O)[C@@H](CO)O2)c(=O)[nH]c1=O
mutagenic call (Test System: AMES SALMONELLA TYPHIMURIUM, Strain/Indicator: TA97, Metabolic Activation: NONE, Method: PREINCUBATION): inactive; negative
mutagenic call (Test System: AMES SALMONELLA TYPHIMURIUM, Strain/Indicator: TA97, Metabolic Activation: RAT, LIVER, S-9, AROCLOR 1254, Method: PREINCUBATION): inactive; negative
mutagenic call (Test System: AMES SALMONELLA TYPHIMURIUM, Strain/Indicator: TA98, Metabolic Activation: NONE, Method: PREINCUBATION): inactive; negative
mutagenic call [1]: inactive; negative
mutagenic call (Test System: AMES SALMONELLA TYPHIMURIUM, Strain/Indicator: TA98, Metabolic Activation: RAT, LIVER, S-9, AROCLOR 1254, Method: PREINCUBATION): inactive; negative
mutagenic call [2]: inactive; negative
mutagenic call (Test System: AMES SALMONELLA TYPHIMURIUM, Strain/Indicator: TA100, Metabolic Activation: NONE, Method: PREINCUBATION): inactive; negative
mutagenic call [3]: inactive; negative
mutagenic call (Test System: AMES SALMONELLA TYPHIMURIUM, Strain/Indicator: TA100, Metabolic Activation: RAT, LIVER, S-9, AROCLOR 1254, Method: PREINCUBATION): inactive; negative
mutagenic call [4]: inactive; negative
mutagenic call (Test System: AMES SALMONELLA TYPHIMURIUM, Strain/Indicator: TA102, Metabolic Activation: NONE, Method: PREINCUBATION): inactive; negative
mutagenic call (Test System: AMES SALMONELLA TYPHIMURIUM, Strain/Indicator: TA102, Metabolic Activation: RAT, LIVER, S-9, AROCLOR 1254, Method: PREINCUBATION): inactive; negative
mutagenic call (Test System: AMES SALMONELLA TYPHIMURIUM, Strain/Indicator: TA104, Metabolic Activation: NONE, Method: PREINCUBATION): inactive; negative
mutagenic call (Test System: AMES SALMONELLA TYPHIMURIUM, Strain/Indicator: TA104, Metabolic Activation: RAT, LIVER, S-9, AROCLOR 1254, Method: PREINCUBATION): inactive; negative
mutagenic call (Test System: AMES SALMONELLA TYPHIMURIUM, Strain/Indicator: TA1535, Metabolic Activation: NONE, Method: PREINCUBATION): inactive; negative
mutagenic call (Test System: AMES SALMONELLA TYPHIMURIUM, Strain/Indicator: TA1535, Metabolic Activation: RAT, LIVER, S-9, AROCLOR 1254, Method: PREINCUBATION): inactive; negative
mutagenic call (Test System: AMES SALMONELLA TYPHIMURIUM, Strain/Indicator: TA1537, Metabolic Activation: NONE, Method: PREINCUBATION): inactive; negative
mutagenic call (Test System: AMES SALMONELLA TYPHIMURIUM, Strain/Indicator: TA1537, Metabolic Activation: NONE, Method: STANDARD PLATE): inactive; negative
mutagenic call (Test System: AMES SALMONELLA TYPHIMURIUM, Strain/Indicator: TA1537, Metabolic Activation: RAT, LIVER, S-9, AROCLOR 1254, Method: PREINCUBATION): inactive; negative
mutagenic call (Test System: AMES SALMONELLA TYPHIMURIUM, Strain/Indicator: TA1537, Metabolic Activation: RAT, LIVER, S-9, AROCLOR 1254, Method: STANDARD PLATE): inactive; negative
mutagenic call (Test System: AMES SALMONELLA TYPHIMURIUM, Strain/Indicator: TA1538, Metabolic Activation: NONE, Method: PREINCUBATION): inactive; negative
mutagenic call (Test System: AMES SALMONELLA TYPHIMURIUM, Strain/Indicator: TA1538, Metabolic Activation: RAT, LIVER, S-9, AROCLOR 1254, Method: PREINCUBATION): inactive; negative
mutagenic call (Test System: CHINESE HAMSTER V-79, Strain/Indicator: V-79/8-AZAGUANINE, Metabolic Activation: NONE): inactive; negative

O=[N+]([O-])c1c2c(c3ccc4cccc5ccc1c3c45)C=CCC2
mutagenic call [1]: inactive; negative
mutagenic call [2]: inactive; negative
mutagenic call [3]: inactive; negative
mutagenic call [4]: inactive; negative

N[C@@H](CS)C(=O)O
mutagenic call (End Point: IN VIVO MICRONUCLEUS, Test System: BONE MARROW POLYCHROMATIC ERYTHROCYTES, Species: MOUSE, Strain/Sex: DDY/MALE, Route: IP): inactive; negative
mutagenic call (Test System: AMES SALMONELLA TYPHIMURIUM, Strain/Indicator: TA92, Metabolic Activation: HOMOGENIZED V-79, Method: STANDARD PLATE): active; positive
mutagenic call (Test System: AMES SALMONELLA TYPHIMURIUM, Strain/Indicator: TA92, Metabolic Activation: NONE, Method: STANDARD PLATE): active; positive
mutagenic call (Test System: AMES SALMONELLA TYPHIMURIUM, Strain/Indicator: TA92, Metabolic Activation: RAT, KIDNEY, S-9, Method: PREINCUBATION): active; positive
mutagenic call (Test System: AMES SALMONELLA TYPHIMURIUM, Strain/Indicator: TA92, Metabolic Activation: RAT, KIDNEY, S-9, Method: STANDARD PLATE): active; positive
mutagenic call (Test System: AMES SALMONELLA TYPHIMURIUM, Strain/Indicator: TA92, Metabolic Activation: RAT, LIVER, S-9, Method: STANDARD PLATE): active; positive
mutagenic call (Test System: AMES SALMONELLA TYPHIMURIUM, Strain/Indicator: TA97, Metabolic Activation: RAT, KIDNEY, S-9, Method: PREINCUBATION): active; positive
mutagenic call (Test System: AMES SALMONELLA TYPHIMURIUM, Strain/Indicator: TA97, Metabolic Activation: RAT, KIDNEY, S-9, Method: STANDARD PLATE): active; positive
mutagenic call (Test System: AMES SALMONELLA TYPHIMURIUM, Strain/Indicator: TA98, Metabolic Activation: HAMSTER, LIVER, S-9, AROCLOR 1254, Method: STANDARD PLATE): active; positive
mutagenic call [2]: active; positive
mutagenic call (Test System: AMES SALMONELLA TYPHIMURIUM, Strain/Indicator: TA100, Metabolic Activation: HAMSTER, LIVER, S-9, AROCLOR 1254, Method: STANDARD PLATE): active; positive
mutagenic call [3]: active; positive
mutagenic call (Test System: AMES SALMONELLA TYPHIMURIUM, Strain/Indicator: TA100, Metabolic Activation: RAT, KIDNEY, S-9, Method: PREINCUBATION): active; positive
mutagenic call (Test System: AMES SALMONELLA TYPHIMURIUM, Strain/Indicator: TA100, Metabolic Activation: RAT, KIDNEY, S-9, Method: STANDARD PLATE): active; positive
mutagenic call [4]: active; positive
mutagenic call (Test System: AMES SALMONELLA TYPHIMURIUM, Strain/Indicator: TA100, Metabolic Activation: RAT, LIVER, S-9, Method: STANDARD PLATE): active; positive
mutagenic call (Test System: AMES SALMONELLA TYPHIMURIUM, Strain/Indicator: TA102, Metabolic Activation: NONE, Method: STANDARD PLATE): active; positive
mutagenic call (Test System: AMES SALMONELLA TYPHIMURIUM, Strain/Indicator: TA102, Metabolic Activation: RAT, KIDNEY, S-9, Method: PREINCUBATION): active; positive
mutagenic call (Test System: AMES SALMONELLA TYPHIMURIUM, Strain/Indicator: TA104, Metabolic Activation: RAT, KIDNEY, S-9, Method: PREINCUBATION): active; positive
mutagenic call (Test System: AMES SALMONELLA TYPHIMURIUM, Strain/Indicator: TA104, Metabolic Activation: RAT, KIDNEY, S-9, Method: STANDARD PLATE): inactive; negative
mutagenic call (Test System: AMES SALMONELLA TYPHIMURIUM, Strain/Indicator: TA1535, Metabolic Activation: RAT, KIDNEY, S-9, Method: PREINCUBATION): inactive; negative
mutagenic call (Test System: AMES SALMONELLA TYPHIMURIUM, Strain/Indicator: TA1537, Metabolic Activation: RAT, KIDNEY, S-9, Method: PREINCUBATION): inactive; negative
mutagenic call (Test System: CHINESE HAMSTER V-79, Strain/Indicator: V-79/6-THIOGUANINE, Metabolic Activation: NONE, Method: STANDARD PLATE): inactive; negative
mutagenic call (Test System: MOUSE LYMPHOMA, Strain/Indicator: L5178Y (TK+/TK-), Metabolic Activation: NONE, Method: SUSPENSION/PLATE): active; positive. reevaluation of results: positive
mutagenic call (Test System: MOUSE LYMPHOMA, Strain/Indicator: L5178Y (TK+/TK-), Metabolic Activation: RAT, LIVER, S-9, AROCLOR 1254, Method: SUSPENSION/PLATE): active; positive. reevaluation of results: positive

CC1(C)Cc2cccc(O)c2O1
mutagenic call (End Point: IN VIVO MICRONUCLEUS, Test System: BONE MARROW POLYCHROMATIC ERYTHROCYTES, Species: MOUSE, Strain/Sex: KM/MALE, FEMALE, Route: IP INJECTION): inactive; negative

Cc1c2ccccc2cc2c3c(ccc12)[C@@H](O)[C@H](O)C=C3
mutagenic call (Test System: CHINESE HAMSTER V-79, Strain/Indicator: V-79/8-AZAGUANINE, Metabolic Activation: NONE, Method: STANDARD PLATE): active; positive
